Measured values taken from PubChem BioAssay (NCI).
Several values for one entry are separate records, joined by “and”; a condition that tells them apart may be missing. Equal entries are not always repeated.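 Results reflect a 48-hour exposure of cells in 96-well plates to compound at five concentrations. Here, GI50 denotes the concentration required for 50% inhibition of growth. TGI: concentration producing complete growth inhibition.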

Columns and labels:
Assay in all cases: NCI anticancer screen, dose series, 48 h
DU-145 prostate = system: DU-145 prostate
LOX IMVI melanoma = system: LOX IMVI melanoma
MDA-MB-231 breast = system: MDA-MB-231 breast
OVCAR-5 ovarian = system: OVCAR-5 ovarian
PC-3 prostate = system: PC-3 prostate
SF-539 CNS = system: SF-539 CNS
UO-31 renal = system: UO-31 renal
HCT-15 colon = system: HCT-15 colon
MCF7 breast = system: MCF7 breast
T-47D breast = system: T-47D breast

SMILES	GI50 (DU-145 prostate)	TGI (DU-145 prostate)	GI50 (LOX IMVI melanoma) [µM]	TGI (LOX IMVI melanoma) [µM]	GI50 (MDA-MB-231 breast)	TGI (MDA-MB-231 breast)	GI50 (OVCAR-5 ovarian)	TGI (OVCAR-5 ovarian)	GI50 (PC-3 prostate)	TGI (PC-3 prostate)	GI50 (SF-539 CNS)	TGI (SF-539 CNS)	GI50 (UO-31 renal)	TGI (UO-31 renal)	TGI (HCT-15 colon)	GI50 (HCT-15 colon)	GI50 (MCF7 breast)	TGI (MCF7 breast)	GI50 (T-47D breast)	TGI (T-47D breast)
CCCCN(CCCC)c1cc(C(=O)CCCCCN)c2ccccc2n1	1.89 µM	3.41 µM	1.69	3.13	1.62 µM	3.09 µM	1.85 µM	3.65 µM	2.56 µM	6.07 µM	1.95 µM	3.41 µM	1.85 µM	3.68 µM						
CCC[CH2][Sn]([CH2]CCC)([O]C(=O)c1cc(OC)c(OC)c(OC)c1)[O]C(=O)c1cc(OC)c(OC)c(OC)c1			0.695	2.77			2.32 µM	3.83 µM			0.788 µM	2.12 µM	1.33 µM	2.61 µM						
Nc1ccccc1S(=O)c1ccccc1 (stereo unspecified)				> 100				> 100 µM				> 100 µM		> 100 µM	> 100 µM					
CCOC(=O)NC(=O)c1cn(CCCCCCCCCCC(=O)N2CCN(CCn3cc(C(=O)NC(=O)OCC)c(=O)[nH]c3=O)CC2)c(=O)[nH]c1=O				> 100								> 100 µM			> 100 µM					
CCOC(=O)/C(=C/c1cc(OC)ccc1OC)CC(=O)O				> 100								> 100 µM		> 100 µM	> 62.7 µM					
Cn1c(O)c(C=N)c(=O)n(C)c1=O				> 100				> 100 µM						> 100 µM	> 100 µM					
C[CH2][Sn]1([CH2]C)[O]C2C(O)OC(CO)C(O)C2[O]1 (stereo unspecified)	86.8 µM	> 100 µM			14.4 µM	28.6 µM	20.8 µM	47.3 µM	> 100 µM	> 100 µM	17.3 µM	32.5 µM	68.7 µM	> 100 µM	> 100 µM	60.3 µM	25.4 µM	79.5 µM	14.6 µM	32.3 µM
c1ccc2c(c1)nnn1c3cnccc3nc21				> 100				> 100 µM				97.2 µM		> 100 µM	80 µM					
O=c1oc2c(Br)c(O)c(Br)cc2c2ccccc12		70.8 µM		68.9		66.1 µM		> 100 µM		50.4 µM		63.3 µM			42.9 µM			48.7 µM		96.5 µM
COC(=O)C(=C\Sc1ccccc1)/C=C/C(=O)OC(C)(C)C				21.7				28.8 µM				27 µM		29.5 µM	17.7 µM					
CCCCCCCCCCCCCCCCc1c(C(=O)OC)[nH]c(=S)[nH]c1=O				> 50				> 50 µM				> 50 µM		> 50 µM	> 50 µM					
[Ce+3].[Cl-].[O-]/N=C(\c1ccccc1)c1ccccn1.[O-]/N=C(\c1ccccc1)c1ccccn1.[O-]/N=C(\c1ccccc1)c1ccccn1			26	64.7			> 100 µM	> 100 µM			31 µM	91.9 µM	28.1 µM	82.9 µM	> 100 µM	38.1 µM				
Cc1cc(=O)[nH]c(CNC(=O)c2cccc3ccccc23)n1				> 100								> 100 µM		> 100 µM	> 100 µM					
COC(=O)C1C(=O)O[C@@H](c2ccc(OC)cc2)C1C(=O)OC (stereo partly specified)				> 100				> 100 µM				> 100 µM		> 100 µM						
NCC(=O)Nc1ccc(-n2nc(C(F)(F)F)cc2-c2ccc3c(ccc4ccccc43)c2)cc1	1.32 µM	2.62 µM			1.35 µM	2.87 µM	1.56 µM	2.95 µM	1.24 µM	2.66 µM	1.06 µM	2.41 µM	1.32 µM	2.61 µM	1.71 µM	0.142 µM	0.578 µM	2.06 µM	1.62 µM	3 µM
COC(=O)C1=C2C3=C(C(=O)c4ccccc4C3=O)N(Cc3ccccc3)C2(OC(C)=O)C=CC1=O (stereo unspecified)	14.8 µM	61.9 µM				8.05 µM	18.4 µM	> 100 µM	2.36 µM	19.2 µM	5.9 µM	23.1 µM	18.2 µM	> 100 µM	53.9 µM	14.1 µM	3.73 µM	> 100 µM	66.4 µM	> 100 µM
S=c1cn[nH]c2ccc(Br)cc12		> 100 µM		> 100		> 100 µM		> 100 µM				> 100 µM		> 100 µM	> 100 µM			> 100 µM		> 100 µM
CC(/C=C/C=C/C=C/C=C/C=C/C(O)=C1/C(=O)C(CCC(=O)O)N(C)C1=O)=C\C(C)C(OC1CC(O)C(O)C(C)O1)C(C)C (stereo unspecified)		12.4 µM		11.5		12.2 µM		7.83 µM		16.6 µM		6.3 µM		13.5 µM	19.4 µM			33.6 µM		
O=C(Nc1cccc(-n2cc(-c3ccncc3)c(-c3cc(O)cc(Cl)c3)n2)c1)Nc1ccc(Cl)c(Cl)c1	2.8 µM	10.1 µM			1.01 µM	7.7 µM	2.14 µM	6.16 µM	1.69 µM	5.68 µM	1.44 µM	3.27 µM	1.91 µM	6.51 µM	8.04 µM	2.1 µM	2.8 µM	9.75 µM	2.39 µM	6.17 µM
CCC1(O)C(=O)OCc2c1cc1n(c2=O)Cc2c-1nc1ccccc1c2OC (stereo unspecified)				0.441				27.4 µM				0.0414 µM		0.249 µM	23.7 µM					
Cc1ccc(NC(=O)C2C(=O)C(=O)N(c3ccc(C)cc3)C2=O)cc1 (stereo unspecified)								> 100 µM				> 100 µM		> 100 µM	> 100 µM					
O=S(=O)(c1ccc2c(c1)C(=NO)c1cc(S(=O)(=O)N3CCCCC3)ccc1-2)N1CCCCC1	0.206 µM and 0.154 µM	0.397 µM and 0.296 µM			0.179 µM and 0.0562 µM	0.36 µM and 0.112 µM	0.153 µM and 0.151 µM	0.315 µM and 0.293 µM	0.263 µM and 0.171 µM	0.812 µM and 0.381 µM	0.227 µM and 0.17 µM	0.569 µM and 0.312 µM	0.16 µM and 0.0467 µM	0.319 µM and 0.11 µM	> 1 µM and 0.323 µM	0.914 µM and 0.173 µM	> 1 µM and 0.178 µM	> 1 µM and 0.344 µM	0.186 µM and 0.18 µM	0.423 µM and 0.384 µM
